Data set [1] has as its system carcinosarcome de Walker, sarcome S-45 ou sarcome M-1. It counts as in vivo, rats. As to conditions: for régression complète de la tumeur / durée de vie, augmentation par rapport au groupe témoin (sans antibiotiques): ordinary solution i.v., no carrier: daunorubicyne 2 mg/kg/jour for 5 days, carminomicyne 3 x 0,4 mg/kg at 120 h intervals; for durée de vie, augmentation par rapport au groupe témoin (sans antibiotiques): mean; for examens histologiques de divers tissus, surtout du tissu hépatique / hémopoïèse: rat, in vivo, iv. An excerpt:
Dans les essais effectués, le support selon l'invention était porteur d'une préparation anticancéreuse : daunorubicyne, doxorubicyne ou carminomicyne; teneur en fer : 56 à 64 % en masse, le reste étant du carbone; teneur en antibiotique daunorubicyne, doxorubicyne ou carminomycine adsorbé : 2 à 2,5 % en masse.
L'action anticancéreuse a été établie chez des rats et comparée à celle des microsphères connues portant lesdits antibiotiques (taille moyenne des microsphères: 0,2 à 0,5 »m; enveloppe en albumine dénaturée), ainsi qu'à celle de ces médicaments anticancéreux sans support à commande magnétique. Les sujets expérimentaux étaient des rats d'une masse allant de 180 à 220 g. On a réinoculé aux rats (au milieu de la queue) une des […] couches des tumeurs réinoculables des rats; carcinosarcome de Walker, sarcome S-45 ou sarcome M-1 (40 rats pour chaque souche). Le traitement des animaux a commencé lorsque le volume de la teneur avait 1000 mm³.
Le support selon l'invention contenant de la daunorubicyne ou de la carminomicyne a été injecté en une seule fois lentement dans la veine caudale des rats, dose de 40 mg (0,8 mg en calculant en antibiotique, soit 4 mg/kg), sous forme d'une suspension en 1 ml de solution de gélatinol à 8 % pour injections. Dans le cas de la doxorubicyne la dose a été de 12 mg/kg (dose de support : 96 mg en calculant en antibiotique. Avant l'injection, un aimant permanent de samarium-cobalt (6000 Oe) a été fixé sur la queue au niveau de la tumeur. La localisation du support à antibiotique selon l'invention dans le vaisseau au niveau de la tumeur a été contrôlée à l'aide de radiogrammes.
Les microsphères albumineuses ont été injectées en une seule fois, comme décrit ci-dessus, dans une dose de 4 mg/kg (en calculant en daunorubicyne ou en carminomicyne). Les antibiotiques (sans support à commande magnétique) ont été injectés comme suit : la daunorubicyne a été injectée dans la veine caudale des rats avec une dose de 2 mg/kg/jour en solution de gélatinol à 8 % pour des injections pendant 5 jours (une injection par jour); carminomicyne : 0,4 mg/kg 3 fois avec des intervalles de 120 heures; doxorubicyne : en une seule fois avec une dose de 12 mg/kg. Dans le groupe témoin des animaux atteints de tumeur on a injecté dans la veine, 1 ml de solution de gélatinol à 8 % pour injections.

The test system of data set [2] is oedème provoqué par le dextrane. Description: Anti-oedema activity, dextran-induced tail oedema (plethysmometer). It counts as in vivo, rats. The settings on record: ordinary solution i.v. 20 mg/kg; 1 hour after injection. An excerpt:
On a essayé l'activité anti-oedémique du support, selon l'invention, contenant une préparation antihistaminique (la diphénylhydramine). Le support selon l'invention se composait de 56 à 63 % en masse de fer et de carbone pour le reste; la teneur en diphénylhydramine adsorbée était de 3 % en masse.
Des essais comparatifs de l'activitié anti-oedémique ont été effectués en la comparant à celle de la diphénylhydramine injectée sous forme de solution ordinaire.
Les sujets des essais étaient 30 rats mâles de la population Vistar d'un poids allant de 180 à 220 g. Pour obtenir un oedème expérimental, on a injecté par voie subplantaire au milieu de la queue de 10 rats, 0,1 ml de solution aqueuse de dextrane à 4 %. Un aimant permanent de samarium-cobalt (6000 Oe) a été fixé à cet endroit et on a injecté aussitôt lentement dans la veine caudale 20 mg de support, selon l'invention, contenant 0,6 mg de diphénylhydramine en 0,7 ml de solution de gélatinol à 8 % pour injections (dose moyenne en calculant en diphénylhydramine : 3 mg/kg). La localisation de la dispersion dans le canal vasculaire a été contrôlée par radiographie. Chez 10 rats on a injecté de la même façon la solution de dextrane et on a injecté aussitôt dans la veine caudale la solution de diphénylhydramine (dose : 20 mg/kg, soit en moyenne 5 mg par rat) en 0,7 ml de solution de gélatinol à 8 % pour injections. […]

Turning to `COc1cccc2c1C(=O)c1c(O)c3c(c(O)c1C2=O)C[C@@](O)(C(C)=O)C[C@@H]3O[C@H]1C[C@H](N)[C@H](O)[C@H](C)O1` [daunorubicyne], in data set [1], the “régression complète de la tumeur” value is “en aucun cas”; the “durée de vie, augmentation par rapport au groupe témoin (sans antibiotiques)” value is reported as 15-30%; the “examens histologiques de divers tissus, surtout du tissu hépatique” value was “altérations cytotoxiques graves”; the hémopoïèse entry is reported as “oppression de l'hémopoïèse”.

For `CC(=O)[C@]1(O)Cc2c(O)c3c(c(O)c2[C@@H](O[C@H]2C[C@H](N)[C@H](O)[C@H](C)O2)C1)C(=O)c1c(O)cccc1C3=O` [carminomicyne], in data set [1], the “régression complète de la tumeur” value is listed as “en aucun cas”; the “durée de vie, augmentation par rapport au groupe témoin (sans antibiotiques)” value was 15-30%; the “examens histologiques de divers tissus, surtout du tissu hépatique” value is reported as “altérations cytotoxiques graves”; the hémopoïèse entry is “oppression de l'hémopoïèse”.

For the molecule `CN(C)CCOC(c1ccccc1)c1ccccc1` [diphénylhydramine], in data set [2], the “augmentation du volume de la queue” value was 1025±41 mm³ and the “augmentation du volume de la queue plus faible que dans le groupe témoin” value was found to be 33±2%.

For the origin of these results see patent EP0451299B1, “MAGNETOCONTROLLABLE CARRIER WITH PHYSIOLOGICALLY ACTIVE SUBSTANCE AND METHOD FOR MAKING SAID CARRIER” (KHOLODOV, Leonid Efimovich, priority 1989, dated 1991).
